The source of these data is patent US20210040062A1, “AZOLE-SUBSTITUTED PYRIDINE COMPOUND” (TAISHO PHARMACEUTICAL CO., LTD., priority 2016, published 2021).

Each structure is given as a SMILES string.

Common to all, as to format: biochemical
One experiment has as its target T1, human CYP4F2 (Homo sapiens, UniProt P78329).
T1 construct: host or cells: Escherichia coli (membrane fraction)
T1 sequence (P78329 5-520): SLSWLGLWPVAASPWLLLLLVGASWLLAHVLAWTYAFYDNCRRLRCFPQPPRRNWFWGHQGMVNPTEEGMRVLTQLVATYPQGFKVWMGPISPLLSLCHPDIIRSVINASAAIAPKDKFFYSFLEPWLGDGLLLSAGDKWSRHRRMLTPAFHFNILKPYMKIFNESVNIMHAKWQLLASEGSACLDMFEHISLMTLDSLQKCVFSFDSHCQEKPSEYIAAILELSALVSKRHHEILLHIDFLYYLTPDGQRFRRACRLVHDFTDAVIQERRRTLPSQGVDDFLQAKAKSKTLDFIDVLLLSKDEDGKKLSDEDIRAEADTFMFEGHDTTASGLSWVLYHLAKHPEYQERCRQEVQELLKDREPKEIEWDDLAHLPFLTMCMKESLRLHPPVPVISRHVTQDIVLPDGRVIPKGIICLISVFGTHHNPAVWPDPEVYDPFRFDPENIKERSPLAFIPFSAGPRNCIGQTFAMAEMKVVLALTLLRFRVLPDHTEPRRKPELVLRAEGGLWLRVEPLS
Put plainly: CYP4F2 inhibition test (Test Example 1). The conditions noted are these: Escherichia coli membrane fraction expressing human CYP4F2, 2.5 μM luciferine derivative, room temperature 60 minutes, luminescence. The essentials:
(§1)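 Luminescent read-out after adding luciferin detection reagent to a 60 min room-temperature reaction of compound with human CYP-expressing E. coli membrane fraction (100 μg/mL). Substrate and buffer differ: 60 μM luciferin derivative in Tris pH 7.5 with NADPH regeneration for CYP4A11; 2.5 μM in KPO4 pH 7.4 with 1 mM NADPH for CYP4F2.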

A further experiment has as its target T2, human CYP4A11 (Homo sapiens, UniProt Q02928).
T2 construct: host or cells: Escherichia coli (membrane fraction)
T2 sequence (Q02928 5-519): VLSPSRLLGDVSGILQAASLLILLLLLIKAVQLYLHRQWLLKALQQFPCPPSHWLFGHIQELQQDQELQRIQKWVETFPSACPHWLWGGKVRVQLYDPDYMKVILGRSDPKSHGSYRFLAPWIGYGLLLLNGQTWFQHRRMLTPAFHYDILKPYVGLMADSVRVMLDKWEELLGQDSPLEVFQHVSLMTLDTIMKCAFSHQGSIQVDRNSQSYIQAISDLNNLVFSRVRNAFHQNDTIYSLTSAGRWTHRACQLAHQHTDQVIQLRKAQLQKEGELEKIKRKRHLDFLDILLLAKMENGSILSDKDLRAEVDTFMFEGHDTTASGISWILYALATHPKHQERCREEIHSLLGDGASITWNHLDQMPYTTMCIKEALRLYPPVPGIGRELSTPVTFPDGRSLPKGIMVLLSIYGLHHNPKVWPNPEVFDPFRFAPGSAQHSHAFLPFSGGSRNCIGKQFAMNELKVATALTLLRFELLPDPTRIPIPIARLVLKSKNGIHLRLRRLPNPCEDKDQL
Put plainly: CYP4A11 inhibition test (Test Example 1). Conditions: Escherichia coli membrane fraction expressing human CYP4A11, 60 μM luciferine derivative, room temperature 60 minutes, luminescence. The essentials: as §1

The target in experiment [1] is 20-HETE producing enzymes (human kidney microsome). Briefly: Inhibition test against 20-HETE producing enzymes using human kidney microsomes (Test Example 2). Conditions: human kidney microsome 250 μg/mL, 20 μM arachidonic acid, 37° C. 45 minutes, 20-HETE by LC-MS/MS. Here is the method:
(1) Inhibition Test for Each Compound of the Present Invention Against 20-HETE Producing Enzymes Using Human Kidney Microsomes
The reaction solution containing each compound [final concentration of 100 mmol/L, KPO4 (pH 7.4), 20 μM, Arachidonic acid, 4 mM NADPH] was added to the human kidney microsome (250 μg/mL, protein). Following this, the microsome was left to stand at 37° C. for 45 minutes to perform 20-HETE producing reaction. After adding formic acid to stop the reaction, 9 times amount of acetonitrile was added, and deproteinization was carried out by centrifugation (1000 rpm, 4° C., 10 minutes).
A: Peak area value of 20-HETE/peak area value of internal standard substance with addition of compound
B: Peak area value of 20-HETE/peak area value of internal standard substance without addition of compound and NADPH
C: Peak area value of 20-HETE/peak area value of internal standard substance without addition of compound
For the above described compound A and compound B disclosed in WO03/022821, the 50% inhibitory concentration (IC50 value) against 20-HETE producing enzymes was calculated according to the method described in the present Test Example 2.
On the other hand, in Test Example 2, nonradioactive arachidonic acid was used as a substrate for 20-HETE producing reaction, and the amount of 20-HETE produced was measured using LC-MS/MS. In this case, the concentration of arachidonic acid, the substrate, is 20 μM.
In recent years, it is recommended that the substrate concentration for calculating the IC50 value be set at the Km value (Assay Guidance Manual, Sittampalam et. al. (URL: http://www.ncbi.nlm.nih.gov/books/NBK53196/)).

Usually IC50 stands for the point on the concentration scale where inhibition reaches its midpoint. Higher therefore signals weaker potency. For the compound `CC(=O)N1CCN(CCOc2ccc(-c3ccn[nH]3)cc2)CC1` [Compound A, reference compound], the IC50 against human CYP4F2 came out at 1000 nM; against human CYP4A11 it was 11000 nM; in experiment [1], 408 nM.

For the compound `CCOC(=O)N1CCN(CCOc2ccc(-c3ccn[nH]3)cn2)CC1` [Compound B, reference compound], the IC50 against human CYP4F2 was 36000 nM; against human CYP4A11 it was over 50000 nM; in experiment [1] it was 15600 nM.

Regarding `Cc1n[nH]cc1-c1ccc(OCc2cccc(S(C)(=O)=O)c2)cn1` [Example 41-2], the values for the IC50 against human CYP4F2 and against human CYP4A11 were 4300 nM and 1100 nM, respectively.

Turning to `CS(=O)(=O)c1cccc(COc2ccc(-c3cnsc3)nc2)c1` [Example 41-3], the IC50 on human CYP4F2 turned out to be 1600 nM; on human CYP4A11 it was 520 nM.

Consider `CC(=O)N1CCC(COc2ccc(-c3ccns3)nc2)CC1` [Example 42-1, 1-(4-{[6-(1,2-Thiazol-5-yl)pyridin-3-yl]oxymethyl}piperidin-1-yl)ethanone], for which the IC50 was 44 nM against human CYP4F2 and 110 nM on human CYP4A11.

With `CS(=O)(=O)c1cccc(COc2ccc(-c3ccns3)nc2)c1` [Example 42-2], the results for the IC50 against human CYP4F2 and against human CYP4A11 were 140 nM and 65 nM, respectively.

As to `CC(=O)N1CCC(COc2ccc(-c3c[nH]nn3)nc2)CC1` [Example 43-1, 1-(4-{[6-(1H-Triazol-4-yl)pyridin-3-yl]oxymethyl}piperidin-1-yl)ethanone], the figures for the IC50 against human CYP4F2 and at human CYP4A11 were 3100 nM and 4800 nM, respectively.

Regarding `CC(=O)N1CCC(COc2ccc(-c3ncn[nH]3)nc2)CC1` [Example 43-2], the IC50 at human CYP4F2 worked out at 250 nM; on human CYP4A11, 1300 nM.

As to `O=S1(=O)CCC(COc2ccc(-c3cn[nH]c3)nc2)CC1` [Example 43-3], the IC50 against human CYP4F2 was determined as 3800 nM; on human CYP4A11, 600 nM.

As for `O=S1(=O)CCCC(COc2ccc(-c3cn[nH]c3)nc2)C1` (stereo not drawn) [Example 43-4], the IC50 was found to be 5400 nM on human CYP4F2 and 390 nM at human CYP4A11.

For `O=S1(=O)CCC(CCOc2ccc(-c3cn[nH]c3)nc2)CC1` [Example 43-5], the IC50 on human CYP4F2 turned out to be 3400 nM; on human CYP4A11, 290 nM.

In the case of `O=S1(=O)CCCC(CCOc2ccc(-c3cn[nH]c3)nc2)C1` (stereo not drawn) [Example 43-6], the IC50 against human CYP4F2 turned out to be 3500 nM; against human CYP4A11, 420 nM.

`CS(=O)(=O)c1cccc(COc2ccc(-c3c[nH]nn3)nc2)c1` [Example 44-1, 5-[(3-Methylsulfonylphenyl)methoxy]-2-(1H-triazol-4-yl)pyridine]: the values for the IC50 against human CYP4F2 and on human CYP4A11 were 9000 nM and 2400 nM, respectively.

As for `CC(=O)N1CCC(COc2ccc(-n3ccnn3)nc2)CC1` [Example 45-1, 1-(4-{[6-(Triazol-1-yl)pyridin-3-yl]oxymethyl}piperidin-1-yl)ethanone], the figures for the IC50 against human CYP4F2 and on human CYP4A11 were 370 nM and 1300 nM, respectively.

`CS(=O)(=O)c1cccc(COc2ccc(-n3ccnn3)nc2)c1` [Example 45-2]: the IC50 against human CYP4F2 amounted to 3100 nM; at human CYP4A11 it was 640 nM.

Take `CC(=O)N1CCC(COc2ccc(-n3cncn3)nc2)CC1` [Example 45-3]: the IC50 on human CYP4F2 came out at 26 nM; on human CYP4A11, 55 nM.

Turning to `CS(=O)(=O)c1cccc(COc2ccc(-n3cncn3)nc2)c1` [Example 45-4], the IC50 turned out to be 220 nM on human CYP4F2 and 31 nM against human CYP4A11.

Take `CC(=O)N1CCC(COc2ccc(-n3cnnc3)nc2)CC1` [Example 45-5]: the IC50 against human CYP4F2 amounted to 1600 nM; against human CYP4A11 it was 11000 nM.

On to `CS(=O)(=O)c1cccc(COc2ccc(-n3cnnc3)nc2)c1` [Example 45-6], for which the figures for the IC50 on human CYP4F2 and against human CYP4A11 were 16000 nM and 5700 nM, respectively.

For `CS(=O)(=O)c1cccc(COc2ccc(-c3[nH]ncc3C(F)F)nc2)c1` [Example 46-1, 2-[4-(Difluoromethyl)-1H-pyrazol-5-yl]-5-[(3-methylsulfonylphenyl)methoxy]pyridine], the IC50 against human CYP4F2 came to 7500 nM; against human CYP4A11 it was 3900 nM.

On to `CS(=O)(=O)c1cccc(COc2ccc(-c3ncn[nH]3)nc2)c1` [Example 46-2], for which the IC50 against human CYP4F2 was 1500 nM; against human CYP4A11, 340 nM.

With `CS(=O)(=O)N1CCC[C@H](COc2ccc(-c3cn[nH]c3)nc2)C1` [Example 46-3], the IC50 stood at 2000 nM against human CYP4F2 and 33 nM against human CYP4A11.

Consider `CS(=O)(=O)N1CCC[C@@H](COc2ccc(-c3cn[nH]c3)nc2)C1` [Example 46-4], for which the figures for the IC50 at human CYP4F2 and against human CYP4A11 were 1400 nM and 39 nM, respectively.

As for `CS(=O)(=O)c1cccc(COc2ccc(-c3[nH]ncc3C(=O)NC3CC3)nc2)c1` [Example 47-1, N-Cyclopropyl-5-{5-[(3-methylsulfonylphenyl)methoxy]pyridin-2-yl}-1H-pyrazole-4-carboxamide], the IC50 at human CYP4F2 is 15000 nM; against human CYP4A11 it was over 50000 nM.

Regarding `CS(=O)(=O)c1cccc(COc2ccc(-c3[nH]ncc3C(N)=O)nc2)c1` [Example 48-1, 5-{5-[(3-Methylsulfonylphenyl)methoxy]pyridin-2-yl}-1H-pyrazole-4-carboxamide], the IC50 on human CYP4F2 turned out to be 33000 nM; against human CYP4A11, 20000 nM.

For the compound `CS(=O)(=O)c1cccc(COc2ccc(-c3[nH]ncc3C#N)nc2)c1` [Example 48-2, 5-{5-[(3-Methylsulfonylphenyl)methoxy]pyridin-2-yl}-1H-pyrazole-4-carbonitrile], the IC50 was 1700 nM against human CYP4F2 and 770 nM against human CYP4A11.

Take `CS(=O)(=O)c1cccc(COc2ccc(-c3[nH]ncc3CO)nc2)c1` [Example 49-1, (5-{5-[(3-Methylsulfonylphenyl)methoxy]pyridin-2-yl}-1H-pyrazol-4-yl)methanol]: the IC50 on human CYP4F2 stood at 1800 nM; against human CYP4A11, 550 nM.

In the case of `COCc1cn[nH]c1-c1ccc(OCc2cccc(S(C)(=O)=O)c2)cn1` [Example 49-2, 2-[4-(Methoxymethyl)-1H-pyrazol-5-yl]-5-[(3-methylsulfonylphenyl)methoxy]pyridine], the IC50 came out at 28000 nM on human CYP4F2 and 13000 nM against human CYP4A11.

Take `C1=C(c2cccc(COc3ccc(-c4ccn[nH]4)nc3)c2)CCC1` [Reference Example 53-1, 5-{[3-(Cyclopent-1-en-1-yl)phenyl]methoxyl}-2-(1H-pyrazol-5-yl)pyridine]: the results for the IC50 against human CYP4F2 and against human CYP4A11 were 25 nM and 210 nM, respectively.

For `CCc1cccc(COc2ccc(-c3ccn[nH]3)nc2)c1` [Reference Example 53-2, 5-[(3-Ethylphenyl)methoxy]-2-(1H-pyrazol-5-yl)pyridine], the IC50 against human CYP4F2 was determined as 88 nM; on human CYP4A11, 120 nM.

Take `Cc1cccc(COc2ccc(-c3ccn[nH]3)nc2)c1` [Reference Example 54-1, 5-[(3-Methylphenyl)methoxy]-2-(1H-pyrazol-5-yl)pyridine]: the values for the IC50 against human CYP4F2 and on human CYP4A11 were 88 nM and 340 nM, respectively.

Regarding `Cc1ccc(COc2ccc(-c3ccn[nH]3)nc2)cc1` [Reference Example 54-2, 5-[(4-Methylphenyl)methoxy]-2-(1H-pyrazol-5-yl)pyridine], the IC50 at human CYP4F2 turned out to be 10 nM; against human CYP4A11 it was 560 nM.
